Molecules are shown by their SMILES. In brackets after ≈: the same amount, converted by molar mass. Like-named read-outs stand apart in the source and are kept apart here.

The text below walks through data of patent publication US10022412B2, “Composition for preventing or alleviating periodontal diseases, containing, as active ingredient, mangosteen extract or α- or γ-mangosteen” (Medi Bio Lab. co., Ltd., priority 2014, dated 2018).

The assay concerns Streptococcus mutans ATCC 25175. Briefly: MIC test for Streptococcus mutans (NCCLS). The class given is cell-based. From the text: Generally there are minimum inhibitory concentration (hereinafter, referred to MIC) test and time-kill assay test as test methods that become the standard for judging utility of antibiotics, when a new antibiotics is developed.
MIC TEST is a test method deciding minimum inhibitory concentration where bacteria cannot grow well, namely minimal usage of antibiotics for obtaining purposed antibacterial efficacy, and Time-Kill assay test is a test method deciding usage of antibiotics that can maintain purposed efficacy for certain time range. Each test was performed, in order to test whether mangosteem extracts have proliferation inhibiting efficacy against Streptocccus Mutans (Streptocccus Mutans ATCC […]) to a certain degree.
MIC test for Streptococcus mutans (Streptococcus mutans ATCC 25175) was progressed according to the American clinical test standard method, NCCLS (National Committee for Clinical Laboratory Standards). To do comparative test of antibacterial ability of mangosteen extracts against Streptococcus mutans, after preparing each analysis sample as shown in the following table 5, that is the concentration of each analysis sample was 0, 1, 2, 3, 4, 5, 6, 7, 8, 9 and 10 ul, and the concentration of used Streptococcus mutans bacteria finally became 1×10^5 at the ratio of 50% by weight, and the concentration of DMSO (dimethyl sulfoxide) used as an analysis sample solvent finally became 1% by weight, and BHI medium (Brain heart infusion: Peptic Digest of Animal tissue, Sodium Chloride, Dextrose, Pancreatic Digest of Gelation, Disodium Phosphate, Final PH7.4+-0.2; Difco Company) was added for the remaining 40% by weight, they were used for the test. […]
After adding the samples in a microtube (duplicate) and culturing at 37° C. for 24 hrs, growth inhibit ion degree was observed by measuring absorbance at 500 nm.

As usually defined, the MIC is the lowest concentration found to suppress growth. As to `COc1c(O)cc2oc3cc(O)c(CC=C(C)C)c(O)c3c(=O)c2c1CC=C(C)C` [Alpha-mangosteen, alpha-mangosteen], the MIC by setting is: (S. mutans ATCC 25175, 37° C. 24 hrs, absorbance 500 nm) 1.0(ug/ml); (Streptococcus mutans, ATCC25175, S. mutans ATCC 25175, 37° C. 24 hrs, absorbance 500 nm, read-out: MIC) 1 µg/mL (≈ 2.44 µM).
In the case of `CC(C)=CCc1c(O)cc2oc3cc(O)c(O)c(CC=C(C)C)c3c(=O)c2c1O` [Gamma-mangosteen, gamma-mangosteen], it took 4 µg/mL (≈ 10.1 µM) to inhibit growth (Streptococcus mutans, ATCC25175, 24 h) (MIC).
